Results reported in patent US8420100B2, “Tumor suppressor activating polypeptides and uses thereof” (Department of Biotechnology, priority 2006, dated 2013).

Experiments:
[1] = test system: tumor vasculature of B16F1-induced tumors; assay: Hematoxylin and eosin histopathology of B16F1-induced tumors; format: in vivo, mouse; conditions: tumors excised from treated mice
Source text: (§1) Histopathological changes in the subcutaneous tumors: To analyze the tumor vasculature of TAT PTD, SM treated and P44 treated mice, the tumor sections were stained with HE. […] In SM treated tumors, due to compressed vessels, the shape of RBCs were also distorted (FIG. 7A, lower right panel, arrow marked). […] The presence of hypoxic cells is a hallmark of cancer (Brown, J. M., and Wilson, W. R. (2004) Nat. Rev. Cancer 4, 437-447; Minchinton, A. I., and Tannock, I. F. (2006) Nat. Rev. Cancer 6, 583-592). Cellular responses to hypoxia are triggered by the hypoxia inducible factor-1 alpha (HIF-1α) that is known to restore tissue homeostasis in hypoxic conditions (Semenza, G. L. (2000) Genes Dev. 14, 1983-1991). To determine the status of HIF-1α expression, immunohistochemical analysis was performed on tumor sections obtained from SM and P44 treated mice by using antibody against HIF-1 α. […] All these observations implicate the significance of P44 peptide in restoring tissue architecture in tumor cells and thus potentiates its role as a tumor regressor.
(§2) FIG. 7. Histopathological changes in B16F1-induced tumors. A, Hematoxylin and eosin staining of tumor sections excised from mice treated with either P44 (upper panel) or SM (lower panel) peptide. […] The images have been recorded at 20× and 40×. B, Immunohistochemistry of paraffin embedded tumor sections from P44 treated as well as, SM treated mice. After antigen unmasking, sections were stained with HIF-1α antibody (middle panel) and detected using Cy-3 conjugated mouse immunoglobulin. Sections were counterstained with DAP1 for nuclear localization (left panel). Right panel corresponds to the merged image.

[2] = target: T1, p53 (serine-15 phosphorylation) (Homo sapiens, UniProt P04637); assay: Western blotting for total p53 and phospho serine-15 p53 in peptide-treated HEK 293 cells; format: cell-based; conditions: HEK 293, TAT-PTD alone 50-100 μM
T1 construct: HEK 293 (p53^+/+) cells; endogenous in cells; host or cells: HEK 293
Method: P44 peptide controls the activity of cell cycle regulatory proteins: The minimal dose of P44 peptide that was functionally effective in activating p53 was evaluated by incubating HEK 293 cells with varying concentrations of P44 peptide (1-100 μM) (FIG. 3A) and after 12 h of incubation, protein lysates were prepared and processed for immunoblotting with total p53 (DO-1) and p53 ser-15 phospho-specific antibodies. […] However, there was a 4.5-fold increase in the expression of phosphorylated p53 (pSerine-15 p53) in P44 peptide-treated cells (FIG. 3A, lanes 2-6). To exclude the possibility that p53 activation is an effect of the protein transduction domain of HIV-1 TAT protein, similar set of experiment was performed using TAT-PTD peptide alone (consisting of only the 11-mer TAT-sequence). […] This observation reconfirmed that the RS domain (288-350 aa) of SMAR1 could exclusively activate p53 by mediating its phosphorylation specifically at serine-15 residue. Serine-15 phosphorylation of p53 is associated with its increased transcription efficiency, decreased affinity for MDM2, and its increased nuclear retention. One of the target genes activated by p53 is p21, an inhibitor of a subset of the cyclin-dependent kinases including cdc-2 (Sherr, C. J., and Roberts, J. M. (1999) Genes Dev. 13, 1501-1512). To evaluate the significance of peptide-mediated p53 activation, P44 peptide-treated lysates were further checked for tyrosine 15 phosphorylation of cdc2. […] HEK 293 cells were treated with SM peptide and checked for p53 as well as pcdc-2 levels.
Serine 347 residue of SMAR1: critical for mediating the effects of full-length SMAR1: Once it was established that the serine motif (SSSSYS) plays a pivotal role in SMAR1-mediated p53 activation, it got necessary to identify the serine residue within this motif that might be necessary in mediating these effects. To identify the critical serine residue within P44 peptide, various point-mutant peptides were custom synthesized, that varied with respect to the position of serine residue that was mutated (Table 1). To evaluate the functionality of mutant chimeric TAT-SMAR1 peptides [PS347A, PS348A, PS349A, PS350A and RS mutant (SM)] in comparison to the TAT-SMAR1 WT peptide (P44), HEK 293 cells were treated with 10 μM concentration of either of the peptides and protein lysates were prepared after 12 h incubation period. The lysates were then processed for immunoblotting with pSer-15 p53 and pcdc-2 antibodies. […] However, this was not the case with other mutated peptides. When the alanine was replaced back to serine at the 347 residue (FIG. 4A, lanes 3-5), the functionality of the peptide was restored as observed with increase in pcdc-2 levels. […] However, in case of SM (where serine residues from 347-350 were replaced by alanines) treated cells (FIG. 4A, lane 7), there was no difference in the pSer-15 p53 as well as pcdc-2 levels compared to either untreated or PS347A treated cells (FIG. 4A, lanes 1 and 2, respectively).
FIG. 3. P44 peptide activates p53-mediated cell cycle pathway. A, HEK 293 cells were seeded at a density of 5×10^5 and after 24 h, was incubated with increasing concentrations of the TAT-SMAR1 WT (P44) peptide. Protein lysates were prepared and then immunoblotted with antibodies to total p53, phospho serine-15. B, The same set of experiment was repeated with TAT PTD peptide representing the PTD carrier sequence alone and immunoblotted with phospho serine-15, in comparison of P44 treated cells. C, The status of phospho cdc-2 was further analyzed in P44 peptide treated cells. Total […] was used as an internal control. D, The same set of experiments were again repeated using TAT-SMAR1 RS mutant (SM) peptide and whole cell lysates were probed for phospho p53 serine-15 and pcdc-2 antibodies. […] was used as a loading control.
FIG. 4. Serine 347 residue of SMAR1 mediates p53 activation and stabilization. […]

HIF-1α = assay: Immunohistochemical staining of tumor sections for HIF-1α; format: in vivo, mouse; conditions: tumors excised from treated mice
Source text: as §1, §2
Immunohistochemical staining of tumor sections: Tumor sections in paraffin-embedded blocks were transferred to poly-L-lysine coated glass slides and air-dried overnight at 37° C. They were dewaxed in xylene (three changes) and […] in graded series of decreasing ethanol concentrations. […] Thereafter, detected using cy-3 fluorescence labeled secondary antibody. […]

[3] = test system: B16F1 mouse melanoma cells; assay: B16F1 melanoma tumor regression in nude mice; format: in vivo; conditions: nude mice, 200 μg/mouse thrice a week, 4 weeks
Method: P44 peptide: A potent tumor regressor: To test whether the differences in SMAR1 derived peptide-induced activation of p53 translated to differences in drug sensitivity in vivo, B16F1 mouse melanoma cells were subcutaneously grafted into athymic nude mice, and tumor growth together with therapeutic sensitivity was monitored. Once the tumor nodule was established into the mouse, P44 peptide was injected in the tumor localized areas at a physiological dose of 200 μg/mouse thrice a week. The treatment was continued for 4 weeks. In a parallel experiment, either TAT PTD or TAT-SMAR1 RS mutant peptide, SM (FIGS. 6A and B, respectively) was injected in tumor bearing mice to be used as control.
FIG. 6D-F corresponds to the magnified tumor images of FIG. 6A-C, respectively. […] Thus, P44 peptide mimics the function of full-length SMAR1 in drastically reducing the tumor growth.
FIG. 6. Tumor regression by TAT-SMAR1 WT peptide. A, Nude mice were allowed to develop tumors by subcutaneously injecting B 16F1 mouse melanoma cells. Mice with size-matched tumors were then randomized into three treatment groups (five animals per group); TAT PTD alone (panel A), TAT-SMART RS mutant (SM) (panel B) and TAT-SMAR1 WT (P44) (panel C). Panels D, E and F correspond to the magnified images of panels A, B and C, respectively. Mice were treated with either of the peptides at a dose of 200 μg/mice/thrice a week for consecutive 4 weeks. The tumors were then weighed and plotted for each mouse in all the treatment groups (panel G).
Animal model for tumorgenesis: B16F1 mouse melanoma cells in the exponential growth phase were trypsinized (Invitrogen) and washed twice with PBS. Cell number and viability was assessed and cell cultures with viability >90% were used. Tumors were then established in nude mice by subcutaneous injection of 2×10^6 B16F1 cells. Five mice were used in each set of experiments. The mice were maintained under pathogen-free conditions. When the subcutaneous tumor was clearly visible, the TAT-SMAR1 WT (P44) peptide treatment was started. The P44 peptide was subcutaneously injected proximal to the tumor sites at a dose of 200 μg/mouse thrice a week. The treatment was administered for 4 weeks. For control treatment, TAT PTD alone and TAT SMAR1 RS mutant peptide (SM) were injected in the same manner as the P44 peptide.

T1 sequence (P04637 whole entry): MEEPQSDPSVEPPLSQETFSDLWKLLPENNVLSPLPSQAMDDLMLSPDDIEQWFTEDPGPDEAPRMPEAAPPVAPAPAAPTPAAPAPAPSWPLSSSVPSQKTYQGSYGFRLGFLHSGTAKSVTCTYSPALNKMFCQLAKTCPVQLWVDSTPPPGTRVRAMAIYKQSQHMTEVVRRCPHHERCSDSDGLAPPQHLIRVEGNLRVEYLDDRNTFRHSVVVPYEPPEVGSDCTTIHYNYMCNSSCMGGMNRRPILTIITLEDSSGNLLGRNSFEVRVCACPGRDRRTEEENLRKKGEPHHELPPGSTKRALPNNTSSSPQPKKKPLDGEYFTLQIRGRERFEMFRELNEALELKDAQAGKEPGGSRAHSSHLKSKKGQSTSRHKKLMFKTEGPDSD

YGRKKRRQRRR [TAT PTD, reference compound]
tumor vascular architecture (HE staining) [1]: poorly organized vascular architecture and compressed blood vessels
phosphorylation of serine-15 residue of p53 [2]: no phosphorylation
HIF-1α expression in tumor sections (HIF-1α): increased expression of HIF-1α
tumor weight after excision [3]: 1.5 to 3 g
